# Experimental data: article PMC9585581, “Developing Photoaffinity Probes for Dopamine Receptor D2 to Determine Targets of Parkinson’s Disease Drugs” (ACS Chemical Neuroscience, 2022)
# “Also recorded” adds a separate entry of the source.
# System: rat whole brain proteins
# Assay: Rat whole brain photo-cross-linking, biotin-streptavidin pulldown and LC/MS proteomics (interactome)
# Assay type: binding, Sprague Dawley rat
# Details: probe 50 μM; rat whole brain minus olfactory bulb
# From the text: Whole brain assays were designed to assay the binding partners of 5 and 7, as well as a control for the inherent binding of the benzophenone cross-linker using molecule 16 (Figure 7). […] We chose this methodology to maximize the amount of unique hits we were likely to record. A drawback to this assay, however, is that GPCRs need highly specific extraction/purification conditions to be detected by LC-MS (or other protein detection methodologies) at the end point. Thus, by biasing our assay toward a “wide lens” to record a picture of diverse interactions, we missed the specific focus necessary to observe DRD2 and structurally related GPCRs, and we were unable to directly observe DRD2 in the proteomic analysis.
# To perform the assay, the whole brain minus the olfactory bulb from an adult female Sprague Dawley rat was homogenized and treated with probes or linker control 16 at a 50 μM concentration and photo-cross-linked. A streptavidin resin was used to deplete endogenous biotin and then clicked with azido biotin, followed by streptavidin pulldown. The streptavidin beads were processed by tryptic digest, followed by LC/MS proteomic analysis. […]
# To prepare the homogenate, adult rat brain tissue was microdissected and the olfactory bulb was discarded and sliced into 1 mm pieces. […] The total protein concentration was determined via BCA assay (Pierce) and adjusted to 6 mg/mL. […]
row,Compound,protein hits of the pulldown (in words)
1,"C#CCOc1ccc(C(=O)c2ccc(CN[C@H]3CCc4nc(N)sc4C3)cc2)cc1 [Compound 7, (S)-(4-(((2-Amino-4,5,6,7-tetrahydrobenzo[d]thiazol-6-yl)amino)methyl)phenyl)(4-(prop-2-yn-1-yloxy)phenyl)methanone]","bound other protein networks including the retrograde endocannabinoid signaling pathway, neuronal nitric oxide synthase, GABA receptor components, and muscarinic acetylcholine receptor M1"
2,"C#CCOc1ccc(C(=O)c2ccc(CNCCc3cccc4c3CC(=O)N4)cc2)cc1 [Compound 5, 4-(2-((4-(4-(Prop-2-yn-1-yloxy)benzoyl)benzyl)amino)ethyl)indolin-2-one]","muscarinic acetylcholine receptor M1 and CB1 cannabinoid receptor-interacting protein 1; also recorded: bound other protein networks including the retrograde endocannabinoid signaling pathway, neuronal nitric oxide synthase, GABA receptor components, and muscarinic acetylcholine receptor M1"
